Test results published in patent publication US10550111B2, “Pyrimidine urea compound containing isoxazolines and use thereof” (SHENYANG SINOCHEM AGROCHEMICALS R&D CO., LTD, priority 2014, dated 2020).

Columns and labels:
Format in all cases: in vivo
[1] = test system: broad-leaf weeds and grass weeds; experiment: General screening of herbicidal activity in greenhouse; conditions: 1000 g a.i./hm^2;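 note: 0 means no visible effect and 100 means all weeds dead or not emerged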
Description: (§1) Determination of herbicidal activity of compounds of the present invention against weeds was carried out by the following procedures:
(§2) Seeds of monocotyledonous and dicotyledonous weeds were sown in nutrition soil in paper pot (7 cm diameter), covered with soil in 1 cm and grown in the greenhouse under good growth conditions (temperature, atmospheric humidity, water supply). The compounds of the present invention as emulsifiable concentrate, were applied in pre-emergence and post-emergence treatment by track sprayer (Engineer Research Ltd., pressure 1.95 kg/cm^2, volume 500 L/hm^2, track speed 1.48 km/h). Pre-emergence treatment was conducted after seeding 24 hours and post-emergence treatment was done when the respective weeds reached predetermined leaf stage (grass weed 2- to 3-leaf stage, broad-leaf weed 2- to 4-leaf stage), the state of growth of the respective weeds were visually observed to determine the growth inhibition rate (%) in accordance with the following evaluation standard.
(§3) Growth inhibition rate (%): 0=no discernible action: 100=all weeds dead or not emerged.

Zinnia elegans Jacq. = experiment: Bioassay of herbicidal activity in greenhouse (further screening)
Description: as §1, §2, §3

[2] = test system: Echinochloa crus-galli (L.) Beauv.; experiment: as above
Description: as §1, §2, §3

[3] = test system: Setaria glauca (L.) Beauv.; experiment: as above
Description: as §1, §2, §3

[4] = test system: Abutilon theophrasti Medic.; experiment: as above
Description: as §1, §2, §3

## COC(=O)C1CCN(C(=O)C2(C)CC(c3cc(-n4c(=O)cc(C(F)(F)F)n(C)c4=O)c(F)cc3Cl)=NO2)CC1 (centres unmarked) [Compound 35]
[1]
  pre-emergence and post-emergence herbicidal activity against broad-leaf weeds and grass weeds: good

## CNC(=O)C1(C)CC(c2cc(-n3c(=O)cc(C(F)(F)F)n(C)c3=O)c(F)cc2Cl)=NO1 (centres unmarked) [Compound 23]
[1]
  pre-emergence and post-emergence herbicidal activity against broad-leaf weeds and grass weeds: good

## CC(=O)OCCOC(=O)C1(C)CC(c2cc(-n3c(=O)cc(C(F)(F)F)n(C)c3=O)c(F)cc2Cl)=NO1 (centres unmarked) [Compound 17]
Zinnia elegans Jacq.; dose 7.5 g a.i./hm^2
  Growth inhibition rate, Post-emergence treatment, Zinnia elegans Jacq.: 45%
Zinnia elegans Jacq.; dose 15 g a.i./hm^2
  Growth inhibition rate, Post-emergence treatment, Zinnia elegans Jacq.: 55%
Zinnia elegans Jacq.; dose 30.0 g a.i./hm^2
  Growth inhibition rate, Post-emergence treatment, Zinnia elegans Jacq.: 65%
Zinnia elegans Jacq.; dose 60.0 g a.i./hm^2
  Growth inhibition rate, Post-emergence treatment, Zinnia elegans Jacq.: 90%
Zinnia elegans Jacq.; dose 120.0 g a.i./hm^2
  Growth inhibition rate, Post-emergence treatment, Zinnia elegans Jacq.: 100%
Zinnia elegans Jacq.; dose 600 g a.i./hm^2
  Growth inhibition rate, Post-emergence treatment, Zinnia elegans Jacq.: 100%
  Growth inhibition rate, Pre-emergence treatment, Zinnia elegans Jacq.: 90%
[2]; dose 7.5 g a.i./hm^2
  Growth inhibition rate, Post-emergence treatment, Echinochloa crus-galli (L.) Beauv.: 30%
[2]; dose 15 g a.i./hm^2
  Growth inhibition rate, Post-emergence treatment, Echinochloa crus-galli (L.) Beauv.: 60%
[2]; dose 30.0 g a.i./hm^2
  Growth inhibition rate, Post-emergence treatment, Echinochloa crus-galli (L.) Beauv.: 100%
[2]; dose 60.0 g a.i./hm^2
  Growth inhibition rate, Post-emergence treatment, Echinochloa crus-galli (L.) Beauv.: 100%
[2]; dose 120.0 g a.i./hm^2
  Growth inhibition rate, Post-emergence treatment, Echinochloa crus-galli (L.) Beauv.: 100%
[2]; dose 600 g a.i./hm^2
  Growth inhibition rate, Post-emergence treatment, Echinochloa crus-galli (L.) Beauv.: 100%
  Growth inhibition rate, Pre-emergence treatment, Echinochloa crus-galli (L.) Beauv.: 95%
[3]; dose 7.5 g a.i./hm^2
  Growth inhibition rate, Post-emergence treatment, Setaria glauca (L.) Beauv.: 55%
[3]; dose 15 g a.i./hm^2
  Growth inhibition rate, Post-emergence treatment, Setaria glauca (L.) Beauv.: 60%
[3]; dose 30.0 g a.i./hm^2
  Growth inhibition rate, Post-emergence treatment, Setaria glauca (L.) Beauv.: 100%
[3]; dose 60.0 g a.i./hm^2
  Growth inhibition rate, Post-emergence treatment, Setaria glauca (L.) Beauv.: 100%
[3]; dose 120.0 g a.i./hm^2
  Growth inhibition rate, Post-emergence treatment, Setaria glauca (L.) Beauv.: 100%
[3]; dose 600 g a.i./hm^2
  Growth inhibition rate, Post-emergence treatment, Setaria glauca (L.) Beauv.: 100%
  Growth inhibition rate, Pre-emergence treatment, Setaria glauca (L.) Beauv.: 85%
[4]; dose 7.5 g a.i./hm^2
  Growth inhibition rate, Post-emergence treatment, Abutilon theophrasti Medic.: 95%
[4]; dose 15 g a.i./hm^2
  Growth inhibition rate, Post-emergence treatment, Abutilon theophrasti Medic.: 98%
[4]; dose 30.0 g a.i./hm^2
  Growth inhibition rate, Post-emergence treatment, Abutilon theophrasti Medic.: 100%
[4]; dose 60.0 g a.i./hm^2
  Growth inhibition rate, Post-emergence treatment, Abutilon theophrasti Medic.: 100%
[4]; dose 120.0 g a.i./hm^2
  Growth inhibition rate, Post-emergence treatment, Abutilon theophrasti Medic.: 100%
[4]; dose 600 g a.i./hm^2
  Growth inhibition rate, Post-emergence treatment, Abutilon theophrasti Medic.: 100%
  Growth inhibition rate, Pre-emergence treatment, Abutilon theophrasti Medic.: 90%
[1]
  pre-emergence and post-emergence herbicidal activity against broad-leaf weeds and grass weeds: good

## CSCCC(=O)OCC1(C)CC(c2cc(-n3c(=O)cc(C(F)(F)F)n(C)c3=O)c(F)cc2Cl)=NO1 (centres unmarked) [Compound 54]
Zinnia elegans Jacq.; dose 37.5 g a.i./hm^2
  Growth inhibition rate, Post-emergence treatment, Zinnia elegans Jacq.: 90%
  Growth inhibition rate, Pre-emergence treatment, Zinnia elegans Jacq.: 0%
Zinnia elegans Jacq.; dose 150 g a.i./hm^2
  Growth inhibition rate, Post-emergence treatment, Zinnia elegans Jacq.: 100%
  Growth inhibition rate, Pre-emergence treatment, Zinnia elegans Jacq.: 20%
Zinnia elegans Jacq.; dose 600 g a.i./hm^2
  Growth inhibition rate, Post-emergence treatment, Zinnia elegans Jacq.: 100%
  Growth inhibition rate, Pre-emergence treatment, Zinnia elegans Jacq.: 60%
[2]; dose 37.5 g a.i./hm^2
  Growth inhibition rate, Post-emergence treatment, Echinochloa crus-galli (L.) Beauv.: 10%
  Growth inhibition rate, Pre-emergence treatment, Echinochloa crus-galli (L.) Beauv.: 0%
[2]; dose 150 g a.i./hm^2
  Growth inhibition rate, Post-emergence treatment, Echinochloa crus-galli (L.) Beauv.: 20%
  Growth inhibition rate, Pre-emergence treatment, Echinochloa crus-galli (L.) Beauv.: 15%
[2]; dose 600 g a.i./hm^2
  Growth inhibition rate, Post-emergence treatment, Echinochloa crus-galli (L.) Beauv.: 75%
  Growth inhibition rate, Pre-emergence treatment, Echinochloa crus-galli (L.) Beauv.: 80%
[3]; dose 37.5 g a.i./hm^2
  Growth inhibition rate, Post-emergence treatment, Setaria glauca (L.) Beauv.: 35%
  Growth inhibition rate, Pre-emergence treatment, Setaria glauca (L.) Beauv.: 0%
[3]; dose 150 g a.i./hm^2
  Growth inhibition rate, Post-emergence treatment, Setaria glauca (L.) Beauv.: 70%
  Growth inhibition rate, Pre-emergence treatment, Setaria glauca (L.) Beauv.: 20%
[3]; dose 600 g a.i./hm^2
  Growth inhibition rate, Post-emergence treatment, Setaria glauca (L.) Beauv.: 98%
  Growth inhibition rate, Pre-emergence treatment, Setaria glauca (L.) Beauv.: 60%
[4]; dose 37.5 g a.i./hm^2
  Growth inhibition rate, Post-emergence treatment, Abutilon theophrasti Medic.: 100%
  Growth inhibition rate, Pre-emergence treatment, Abutilon theophrasti Medic.: 0%
[4]; dose 150 g a.i./hm^2
  Growth inhibition rate, Post-emergence treatment, Abutilon theophrasti Medic.: 100%
  Growth inhibition rate, Pre-emergence treatment, Abutilon theophrasti Medic.: 35%
[4]; dose 600 g a.i./hm^2
  Growth inhibition rate, Post-emergence treatment, Abutilon theophrasti Medic.: 100%
  Growth inhibition rate, Pre-emergence treatment, Abutilon theophrasti Medic.: 90%
[1]
  pre-emergence and post-emergence herbicidal activity against broad-leaf weeds and grass weeds: good

## CC(C)NC(=O)C1(C)CC(c2cc(-n3c(=O)cc(C(F)(F)F)n(C)c3=O)c(F)cc2Cl)=NO1 (centres unmarked) [Compound 26]
[1]
  pre-emergence and post-emergence herbicidal activity against broad-leaf weeds and grass weeds: good

## CCCS(=O)(=O)OCC1(C)CC(c2cc(-n3c(=O)cc(C(F)(F)F)n(C)c3=O)c(F)cc2Cl)=NO1 (centres unmarked) [Compound 90]
Zinnia elegans Jacq.; dose 37.5 g a.i./hm^2
  Growth inhibition rate, Post-emergence treatment, Zinnia elegans Jacq.: 98%
  Growth inhibition rate, Pre-emergence treatment, Zinnia elegans Jacq.: 5%
Zinnia elegans Jacq.; dose 150 g a.i./hm^2
  Growth inhibition rate, Post-emergence treatment, Zinnia elegans Jacq.: 100%
  Growth inhibition rate, Pre-emergence treatment, Zinnia elegans Jacq.: 30%
Zinnia elegans Jacq.; dose 600 g a.i./hm^2
  Growth inhibition rate, Post-emergence treatment, Zinnia elegans Jacq.: 100%
  Growth inhibition rate, Pre-emergence treatment, Zinnia elegans Jacq.: 80%
[2]; dose 37.5 g a.i./hm^2
  Growth inhibition rate, Post-emergence treatment, Echinochloa crus-galli (L.) Beauv.: 15%
  Growth inhibition rate, Pre-emergence treatment, Echinochloa crus-galli (L.) Beauv.: 0%
[2]; dose 150 g a.i./hm^2
  Growth inhibition rate, Post-emergence treatment, Echinochloa crus-galli (L.) Beauv.: 35%
  Growth inhibition rate, Pre-emergence treatment, Echinochloa crus-galli (L.) Beauv.: 10%
[2]; dose 600 g a.i./hm^2
  Growth inhibition rate, Post-emergence treatment, Echinochloa crus-galli (L.) Beauv.: 40%
  Growth inhibition rate, Pre-emergence treatment, Echinochloa crus-galli (L.) Beauv.: 25%
[3]; dose 37.5 g a.i./hm^2
  Growth inhibition rate, Post-emergence treatment, Setaria glauca (L.) Beauv.: 25%
  Growth inhibition rate, Pre-emergence treatment, Setaria glauca (L.) Beauv.: 5%
[3]; dose 150 g a.i./hm^2
  Growth inhibition rate, Post-emergence treatment, Setaria glauca (L.) Beauv.: 60%
  Growth inhibition rate, Pre-emergence treatment, Setaria glauca (L.) Beauv.: 20%
[3]; dose 600 g a.i./hm^2
  Growth inhibition rate, Post-emergence treatment, Setaria glauca (L.) Beauv.: 80%
  Growth inhibition rate, Pre-emergence treatment, Setaria glauca (L.) Beauv.: 50%
[4]; dose 37.5 g a.i./hm^2
  Growth inhibition rate, Post-emergence treatment, Abutilon theophrasti Medic.: 100%
  Growth inhibition rate, Pre-emergence treatment, Abutilon theophrasti Medic.: 0%
[4]; dose 150 g a.i./hm^2
  Growth inhibition rate, Post-emergence treatment, Abutilon theophrasti Medic.: 100%
  Growth inhibition rate, Pre-emergence treatment, Abutilon theophrasti Medic.: 10%
[4]; dose 600 g a.i./hm^2
  Growth inhibition rate, Post-emergence treatment, Abutilon theophrasti Medic.: 100%
  Growth inhibition rate, Pre-emergence treatment, Abutilon theophrasti Medic.: 30%
[1]
  pre-emergence and post-emergence herbicidal activity against broad-leaf weeds and grass weeds: good

## Cn1c(C(F)(F)F)cc(=O)n(-c2cc(C3=NOC(C)(CBr)C3)c(Cl)cc2F)c1=O (centres unmarked) [Compound 99]
[1]
  pre-emergence and post-emergence herbicidal activity against broad-leaf weeds and grass weeds: good

## CSCCC(=O)OCC1(C)CC(c2cc(-n3c(=O)cc(C(F)(F)F)n(C)c3=O)ccc2Cl)=NO1 (centres unmarked) [Compound 332]
[1]
  pre-emergence and post-emergence herbicidal activity against broad-leaf weeds and grass weeds: good

## Cn1c(C(F)(F)F)cc(=O)n(-c2cc(C3=NOC(C)(COC(=O)c4cc(Oc5ccc(C(F)(F)F)cc5Cl)ccc4[N+](=O)[O-])C3)c(Cl)cc2F)c1=O (centres unmarked) [Compound 67]
[1]
  pre-emergence and post-emergence herbicidal activity against broad-leaf weeds and grass weeds: good

## COc1c(Cl)ccc(Cl)c1C(=O)OCC1(C)CC(c2cc(-n3c(=O)cc(C(F)(F)F)n(C)c3=O)c(F)cc2Cl)=NO1 (centres unmarked) [Compound 66]
[1]
  pre-emergence and post-emergence herbicidal activity against broad-leaf weeds and grass weeds: good

## CN(C)S(=O)(=O)OCC1(C)CC(c2cc(-n3c(=O)cc(C(F)(F)F)n(C)c3=O)c(F)cc2Cl)=NO1 (centres unmarked) [Compound 96]
[1]
  pre-emergence and post-emergence herbicidal activity against broad-leaf weeds and grass weeds: good

## Cn1c(C(F)(F)F)cc(=O)n(-c2cc(C3=NOC(C)(CO)C3)c(Cl)cc2F)c1=O (centres unmarked) [Compound 42]
[1]
  pre-emergence and post-emergence herbicidal activity against broad-leaf weeds and grass weeds: good

## Cn1c(C(F)(F)F)cc(=O)n(-c2ccc(Cl)c(C3=NOC(C)(COC(=O)CCl)C3)c2)c1=O (centres unmarked) [Compound 328]
[1]
  pre-emergence and post-emergence herbicidal activity against broad-leaf weeds and grass weeds: good

## Cn1c(C(F)(F)F)cc(=O)n(-c2ccc(Cl)c(C3=NOC(C)(COS(C)(=O)=O)C3)c2)c1=O (centres unmarked) [Compound 366]
[1]
  pre-emergence and post-emergence herbicidal activity against broad-leaf weeds and grass weeds: good

## Cn1c(C(F)(F)F)cc(=O)n(-c2ccc(Cl)c(C3=NOC(C)(C(=O)O)C3)c2)c1=O (centres unmarked) [Compound 282]
[1]
  pre-emergence and post-emergence herbicidal activity against broad-leaf weeds and grass weeds: good

## Cn1c(C(F)(F)F)cc(=O)n(-c2ccc(Cl)c(C3=NOC(C)(COC(=O)c4cc(Oc5ccc(C(F)(F)F)cc5Cl)ccc4[N+](=O)[O-])C3)c2)c1=O (centres unmarked) [Compound 345]
[1]
  pre-emergence and post-emergence herbicidal activity against broad-leaf weeds and grass weeds: good

## Cn1c(C(F)(F)F)cc(=O)n(-c2ccc(Cl)c(C3=NOC(C)(COC(=O)C4CC4)C3)c2)c1=O (centres unmarked) [Compound 323]
[1]
  pre-emergence and post-emergence herbicidal activity against broad-leaf weeds and grass weeds: good

## CC(=O)OCC1(C)CC(c2cc(-n3c(=O)cc(C(F)(F)F)n(C)c3=O)ccc2Cl)=NO1 (centres unmarked) [Compound 321]
[1]
  pre-emergence and post-emergence herbicidal activity against broad-leaf weeds and grass weeds: good

## Cn1c(C(F)(F)F)cc(=O)n(-c2ccc(Cl)c(C3=NOC(C)(COC(=O)CCc4ccccc4)C3)c2)c1=O (centres unmarked) [Compound 333]
[1]
  pre-emergence and post-emergence herbicidal activity against broad-leaf weeds and grass weeds: good

## Cn1c(C(F)(F)F)cc(=O)n(-c2ccc(Cl)c(C3=NOC(C)(COC(=O)CCCl)C3)c2)c1=O (centres unmarked) [Compound 329]
[1]
  pre-emergence and post-emergence herbicidal activity against broad-leaf weeds and grass weeds: good

## Cn1c(C(F)(F)F)cc(=O)n(-c2ccc(Cl)c(C3=NOC(C)(CO)C3)c2)c1=O (centres unmarked) [Compound 320]
[1]
  pre-emergence and post-emergence herbicidal activity against broad-leaf weeds and grass weeds: good

## CC(C)C(=O)OCC1(C)CC(c2cc(-n3c(=O)cc(C(F)(F)F)n(C)c3=O)ccc2Cl)=NO1 (centres unmarked) [Compound 324]
[1]
  pre-emergence and post-emergence herbicidal activity against broad-leaf weeds and grass weeds: good
